Reference: patent EP4775577A1, “RAS INHIBITOR” (Tyligand Bioscience (Shanghai) Limited, priority 2023, dated 2025)

Legend:
[1] = tested on: KRAS G12V mutant NCI-H727 cells; assay: Proliferation inhibition of NCI-H727 cells, 3D CellTiter-Glo assay (Method B); assay type: cell-based, human; settings: Homo sapiens, NCI-H727, 120 h, Method B; 3D culture with 0.65% methylcellulose, 5 days, CTG; read-out: NCI-H727 IC50/nM
How it was run: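 Cells grown in 3D medium (RPMI-1640, 10% FBS, 0.65% methylcellulose) overnight, then treated 5 days at 37 °C, 5% CO2 with 9 threefold dilutions from 10 µM top working concentration, duplicate wells. CellTiter-Glo luminescence read; IC50 (nM) fitted by dose-response-inhibition equation.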

[2] = tested on: KRAS G12D mutant AGS cells; assay: Proliferation inhibition of AGS cells, CellTiter-Glo assay; assay type: cell-based, human; settings: Homo sapiens, AGS, 72 h, 3 days, CTG; read-out: AGS IC50/nM
How it was run: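 AGS cells at 1500 cells/well in F12K + 10% FBS were exposed for 3 days at 37°C to nine 3-fold dilutions from 10 µM top concentration, in duplicate. Viability read by CellTiter-Glo luminescence; IC50 (nM) from dose-response-inhibition fitting.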

Pharmacokinetics in mice = settings: mouse, po
Experimental: (§1) Male CD-1 mice, aged 6-8 weeks, were purchased from Zhejiang Vital River Laboratory Animal Co., Ltd.
(§2) For the PO administration group, compounds were formulated in 0.5% Tween 80 and 99.5% (0.5%MC (400cp)) vehicle or 0.5%MC (400cp) vehicle to a final concentration of 1 mg/mL or 2 mg/mL for each compound. The drug formulation was administered to CD-1 mice via gavage at a dose of 10 mL/kg. Blood samples were collected from the submandibular vein or other suitable means at 15 min, 30 min, 1 h, 2 h, 4 h, 6 h, 8 h, and 24 h after administration. The blood samples were centrifuged at low temperature for 5 minutes, and the plasma was collected and stored at -80°C for analysis.
(§3) 10 µL of plasma sample was taken, 200 µL of methanol containing an internal standard as a precipitant was added to precipitate plasma proteins, the compounds to be tested in the plasma was extracted, centrifuged at low temperature, and 10 µL of the supernatant was injected. The drug concentration in blood plasma was analyzed by LC-MS/MS. The pharmacokinetic parameters were calculated using Winnonlin based on the blood drug concentration data at different time points.

[3] = tested on: human lung cancer cells NCI-H441 with KRAS-G12V mutation; assay: Antitumor effect in NCI-H441 subcutaneous xenograft model; assay type: in vivo, NU/NU mice; settings: 20 mpk, PO; for Tumor volume (mm^3) (day 16): BID×17; for TGI%: BID×17, day 16
Experimental: NCI-H441 cells were purchased from ATCC (catalog number: HTB-174). Male NU/NU mice were purchased from Jiangsu Jicui Yaokang Biotechnology Co., Ltd.
NCI-H441 cells were cultured in RPMI-1640 medium containing 10% FBS. Cells in the logarithmic growth phase were collected and resuspended in PBS to an appropriate concentration for subcutaneous tumor inoculation in mice. Experimental mice were subcutaneously inoculated in the right posterior back at a seeding density of 1×10^6 cells/mouse+Matrigel, with a seeding volume of 0.1 mL. When the average tumor volume reached ~150 mm^3, mice were randomly assigned to groups based on tumor size and body weight for drug administration. Drug administration began immediately after grouping, and the day of administration was considered day 0. The drug was administered to the mice twice daily via gavage at doses of 10 mpk, 20 mpk, 30 mpk, or a solvent control (0.5% Tween 80+99.5% of 0.5% MC (400 cp) or 0.5% MC (400 cp)). During the experiment, mouse body weight and tumor size were measured twice weekly. Tumor size was calculated using the formula: Tumor volume (mm^3)=0.5×(Tumor long diameter × Tumor short diameter^2). Relative tumor inhibition rate (TGI) (%): TGI%=[1-(Average tumor volume at the end of treatment in a given treatment group - Average tumor volume at the start of treatment in the treatment group) / (Average tumor volume at the end of treatment in the solvent control group - Average tumor volume at the start of treatment in the solvent control group)] × 100%.

[4] = tested on: human pancreatic cancer cells HPAC; settings: po, 20 mg/kg, 408 h
Experimental: The following materials were used in this experiment: NOD/SCID mice, 6-8 weeks old, female, Jiangsu Jicui Yaokang Biotechnology Co., Ltd.; HPAC cells (carrying KRas G12D mutant protein, ATCC); Captisol (Wuhan Fengyao Tonghui Chemical Products Co., Ltd., Cas#182410-00-0); sodium acetate (aladdin) MC (sigma, 9004-67-5).
The experiment was conducted as follows: 6- to 8- week-old female NOD/SCID mice were subcutaneously inoculated with 1×10^7 HPAC cells in their right posterior back, with an inoculation volume of 0.1 mL. When the tumor reached an average volume of 150 mm^3, mice were randomly assigned to groups based on tumor size and body weight for drug administration. The day of drug administration was considered day 0. The test compound was administered by gavage to four mice in each group, while the control group received an equal volume of the solvent via gavage.
During the experiment, tumor volume and body weight were measured twice a week. Tumor volume was calculated using the formula: Tumor volume (mm^3)=0.5×(tumor long diameter×tumor short diameter^2). The mean tumor inhibition rate (TGI%) was calculated as follows: [(average tumor volume in the control group-average initial tumor volume in the control group)-(average tumor volume in the treatment group - average initial tumor volume in the treatment group)] / (average tumor volume in the control group - average initial tumor volume in the control group).

[5] = tested on: KRAS G12S mutant A549 cells; assay: Proliferation inhibition of A549 cells, 3D CellTiter-Glo assay; assay type: cell-based; settings: Homo sapiens, A549, 120 h, read-out: A549 IC50/nM
Experimental: A549 cells (Nanjing Kebai Biotechnology Co., Ltd., catalog number CBP60084, adherent, culture medium (F12K Nutrient Mixture+10%FBS (GIBCO, Cat#10091-148) at 37°C, 5%CO2, and 95% humidity.
3D Cell Viability Assay: Cells in the logarithmic growth phase were harvested and counted using a platelet counter. Cell viability was assessed using the trypan blue exclusion method to ensure a viability of over 90%. The 3D cell culture medium was prepared by adding 1% MC (methylcellulose, Sigma, Cat#M0512) F-12K medium and 10% FBS. The cell concentration was adjusted to approximately 7407 cells/mL using the 3D medium, and the methylcellulose (MC) content was set to 0.65%. Then, 135 µL of cell suspension was added to each 96-well clear, flat-bottomed, black-walled plate (Greiner, Cat#655096). The cells in the 96-well plates were cultured overnight at 37°C with 5% CO2.
Drug preparation for IC50 assay: A 10-fold drug solution was prepared using culture medium. […] of the drug solution was added to each well of a 96-well plate seeded with cells to achieve a working concentration of up to 10 µM, with a 3× dilution, and 9 concentrations. 2 replicate wells for each drug concentration were set. The cells in the drug-treated 96-well plates were cultured at 37°C and 5% CO^2 for additional5 days, then CTG assay (CellTiter-Glo® Luminescent Cell Viability Assay (Promega, Cat#G7573)) were performed.
The cell plate was equilibrated to room temperature for 30 minutes and the CTG reagent was thawed. 75 µL of CTG solution was added to each well for detection, and the plate was shaken on an orbital shaker for 5 minutes to lyse the cells. The cell plate was placed at room temperature for 25 minutes to stabilize the cryo-luminescence signal and the cryo-luminescence value was read (EnVision® multi-plate reader, PerkinElmer#2105).
Data was analyzed using GraphPad Prism software. The dose-response-inhibition equation was used to fit the data to obtain the dose-response curve, and the IC50 value (nM) was calculated accordingly. [formula]

in vivo = settings: mouse, po, 20 mg/kg
Experimental: as §1, §2, §3

| SMILES | IC50 [1] | IC50 [2] | AUC(0-t) at 8 h (Pharmacokinetics in mice; plasma, 20 mg/kg) | further results |
| --- | --- | --- | --- | --- |
| [2H]C([2H])([2H])C([2H])([2H])N1CC/C(=C\F)[C@](C)(COc2nc(N3Cc4c(COC)c(C(=O)N(C)C)nn4CC[C@@H]3C)c3cc(Cl)c(-c4c(F)ccc5sc(N)c(C#N)c45)c(C)c3n2)C1 (atropisomer, axis not shown) [Example 249A] | < 1.5 nM | 2.3 nM |  | AUC(0-t) at 8 h (Pharmacokinetics in mice; in vivo, 20 mg/kg): 5360 ng·h/mL |
| [2H]C([2H])([2H])N1CCC(=CF)C(C)(COc2nc(N3CCCn4nc(C(=O)N(C)C)c(Cl)c4C3)c3cc(CC)c(-c4c(F)ccc5sc(N)c(C#N)c45)c(F)c3n2)C1 (atropisomer, axis not shown) [Example 265A] | 2.8 nM | < 1.5 nM |  | Tumor volume (mm^3) (day 16) [3]: 330 mm^3; TGI% [3]: 57%; TGI% [4]: 80%; Tumor volume (mm^3) (day 17) [4]: 237 mm^3 |
| CCc1cc2c(N3Cc4cc(C(=O)N(C)C)nn4CC[C@@H]3C)nc(OC[C@]3(C)CN(CC)CC/C3=C\F)nc2c(F)c1-c1c(F)ccc2sc(N)c(C#N)c12 (single isomer, unassigned) [Example 175A] | < 1.5 nM | < 1.5 nM |  | IC50 [5]: 23.3 nM; Tumor volume (mm^3) (day 16) [3]: 266 mm^3; TGI% [3]: 73% |
| CCN1CC/C(=C\F)[C@](C)(COc2nc(N3Cc4cc(C(=O)N(C)C)nn4CC[C@@H]3C)c3cc(Cl)c(-c4c(F)ccc5sc(N)c(C#N)c45)c(C)c3n2)C1 (single isomer, unassigned) [Example 178A] | < 1.5 nM | 1.9 nM |  | AUC(0-t) at 8 h (Pharmacokinetics in mice; plasma, 10 mg/kg): 1190 ng·h/mL |
| CCN1CC/C(=C\F)[C@](C)(COc2nc(N3Cc4c(COC)c(C(=O)N(C)C)nn4CC[C@@H]3C)c3cc(Cl)c(-c4c(F)ccc5sc(N)c(C#N)c45)c(C)c3n2)C1 (single isomer, unassigned) [Example 229A] | < 1.5 nM | 1.7 nM |  | AUC(0-t) at 8 h (Pharmacokinetics in mice; in vivo, 20 mg/kg): 4490 ng·h/mL |
| CCN1CC/C(=C\F)[C@](C)(COc2nc(N3Cc4c(COC)c(C(=O)N(C)C)nn4CC[C@@H]3C)c3cc(C(F)(F)F)c(-c4c(F)ccc5sc(N)c(C#N)c45)c(F)c3n2)C1 (single isomer, unassigned) [Example 232A] | < 1.5 nM | < 1.5 nM |  | AUC(0-t) at 8 h (in vivo): 1520 ng·h/mL |
| CCN1CC/C(=C\F)[C@](C)(COc2nc(N3Cc4c(O)c(C(=O)N(C)C)nn4CC[C@@H]3C)c3cc(Cl)c(-c4c(F)ccc5sc(N)c(C#N)c45)c(F)c3n2)C1 (single isomer, unassigned) [Example 233A] | < 1.5 nM | < 1.5 nM |  | AUC(0-t) at 8 h (Pharmacokinetics in mice; in vivo, 20 mg/kg): 822 ng·h/mL |
| [2H]C([2H])([2H])N(C(=O)c1nn2c(c1COC)CN(c1nc(OC([2H])([2H])[C@]3(C)CN(CC)CC/C3=C\F)nc3c(F)c(-c4c(F)ccc5sc(N)c(C#N)c45)c(Cl)cc13)[C@@H](C)CC2)C([2H])([2H])[2H] (single isomer, unassigned) [Example 235A] | < 1.5 nM | < 1.5 nM | 2990 ng·h/mL |  |
| CCOc1c(C(=O)N(C)C)nn2c1CN(c1nc(OC[C@]3(C)CN(CC)CC/C3=C\F)nc3c(F)c(-c4c(F)ccc5sc(N)c(C#N)c45)c(Cl)cc13)[C@@H](C)CC2 (single isomer, unassigned) [Example 236A] | 1.5 nM | 2.7 nM | 2820 ng·h/mL |  |
| CCN1CC/C(=C\F)[C@](C)(COc2nc(N3Cc4c(COC)c(C(=O)N(C)C)nn4CC[C@@H]3C)c3cc(Cl)c(-c4c(F)cc(F)c5sc(N)c(C#N)c45)c(F)c3n2)C1 (single isomer, unassigned) [Example 237A] | < 1.5 nM | < 1.5 nM | 3910 ng·h/mL |  |
| CC[C@H]1CCn2nc(C(=O)N(C)C)c(COC)c2CN1c1nc(OC[C@]2(C)CN(CC)CC/C2=C\F)nc2c(F)c(-c3c(F)ccc4sc(N)c(C#N)c34)c(Cl)cc12 (single isomer, unassigned) [Example 240A] | < 1.5 nM | 2.5 nM | 2920 ng·h/mL |  |
| [2H]C([2H])([2H])N1CC/C(=C\F)[C@](C)(COc2nc(N3Cc4cc(C(=O)N(C)C)nn4CC[C@@H]3C)c3cc(C(F)(F)F)c(-c4c(F)ccc5sc(N)c(C#N)c45)c(F)c3n2)C1 (single isomer, unassigned) [Example 247A] | < 1.5 nM | < 1.5 nM |  | Tumor volume (mm^3) (day 16) [3]: 162 mm^3; TGI% [3]: 97%; TGI% [4]: 98%; Tumor volume (mm^3) (day 17) [4]: 161 mm^3 |
| CCN1CC/C(=C\F)[C@](C)(COc2nc(N3CCCn4nc(C(=O)N(C)C)c(Cl)c4C3)c3cc(Cl)c(-c4c(F)ccc5sc(N)c(C#N)c45)c(F)c3n2)C1 (single isomer, unassigned) [Example 256A] | < 1.5 nM | 1.5 nM | 1380 ng·h/mL |  |
| [2H]C([2H])([2H])N1CC/C(=C\F)[C@](C)(COc2nc(N3Cc4c(COC)c(C(=O)N(C)C)nn4CC[C@@H]3C)c3cc(CC)c(-c4c(F)ccc5sc(N)c(C#N)c45)c(F)c3n2)C1 (single isomer, unassigned) [Example 258A] | < 1.5 nM | 1.9 nM | 1320 ng·h/mL |  |
| CCN1CC/C(=C\F)[C@](C)(COc2nc(N3Cc4cc(C(C)=O)nn4CC[C@@H]3C)c3cc(Cl)c(-c4c(F)ccc5sc(N)c(C#N)c45)c(F)c3n2)C1 (single isomer, unassigned) [Example 268A] | 4 nM | 3.5 nM |  | AUC(0-t) at 8 h (Pharmacokinetics in mice; plasma, 10 mg/kg): 907 ng·h/mL |
| CCN1CCC(C(F)F)C(C)(COc2nc(N3Cc4c(COC)c(C(=O)N(C)C)nn4CCC3C)c3cc(Cl)c(-c4c(F)ccc5sc(N)c(C#N)c45)c(F)c3n2)C1 (stereo not shown) [Example 251A] | < 1.5 nM | 1.8 nM | 1960 ng·h/mL |  |
| [2H]C([2H])([2H])N1CCC(=CF)C(C)(COc2nc(N3Cc4cc(C(=O)N(C)C)nn4CCC3C)c3cc(Cl)c(-c4c(F)ccc5sc(N)c(C#N)c45)c(F)c3n2)C1 (stereo not shown) [Example 255A] | < 1.5 nM | < 1.5 nM |  | Tumor volume (mm^3) (day 16) [3]: 259 mm^3; TGI% [3]: 74% |
| [2H]C([2H])([2H])N1CC/C(=C\F)[C@](C)(COc2nc(N3CCCn4nc(C(=O)N(C)C)c(Cl)c4C3)c3cc(C4CC4)c(-c4c(F)ccc5sc(N)c(C#N)c45)c(F)c3n2)C1 [Example 266A] | 3 nM | < 1.5 nM |  | Tumor volume (mm^3) (day 16) [3]: 307 mm^3; TGI% [3]: 63% |
